Laboratory results: patent US10168342B2, “Lipid probes and uses thereof” (THE SCRIPPS RESEARCH INSTITUTE, priority 2015, dated 2019)
Read-outs that look alike come from different tables or passages of the source.

Key:
[1] = biological target: T1, human NUCB1 (Homo sapiens, UniProt Q02818); experiment: In vitro gel-based competition of AEA-DA probe labeling of NUCB1; format: binding; details: for IC50: AEA-DA 5 μM, recombinant NUCB1 0.25 μM doped into HEK293T lysates, percent of maximal competition, read-out: IC50, blockade of AEA-DA probe labeling of NUCB1
T1 construct: made in house; host or cells: Escherichia coli BL21(DE3)
T1 sequence (Q02818 27-461): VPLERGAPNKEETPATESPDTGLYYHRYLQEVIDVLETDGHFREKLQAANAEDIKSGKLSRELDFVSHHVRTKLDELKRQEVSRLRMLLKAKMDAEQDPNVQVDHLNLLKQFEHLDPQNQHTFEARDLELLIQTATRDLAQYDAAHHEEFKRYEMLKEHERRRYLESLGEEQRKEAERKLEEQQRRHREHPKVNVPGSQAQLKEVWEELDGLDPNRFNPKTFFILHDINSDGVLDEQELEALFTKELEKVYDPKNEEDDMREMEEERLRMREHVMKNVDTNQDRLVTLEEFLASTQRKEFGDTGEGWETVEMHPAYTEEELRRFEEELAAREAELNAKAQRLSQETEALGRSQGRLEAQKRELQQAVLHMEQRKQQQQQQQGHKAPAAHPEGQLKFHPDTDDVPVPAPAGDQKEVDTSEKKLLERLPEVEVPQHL
Description: Human NUCB1 lacking the N-terminal signal sequence (M1-A26) was subcloned into pET45b(+) vector (Novagen) using the following PCR primers for amplification: 5′-CATCAATTGTGTGCCCCTGGAGAGAG-3′ and 5′-AGCAAGCTTTACAGATGTTGGGGCACC-3′. Following transformation of Escherichia coli strain BL21(DE3) with hNucb1ΔSSpET45b(+), a single colony was isolated and grown in Terrific Broth containing carbenicillin (100 mg/L) at 37° C. to an OD600 of 0.8. Protein expression was induced with IPTG (1.0 mM) and the cells were incubated at 20° C. with shaking overnight. After centrifugation, cells pellets were resuspended in cold buffer containing HEPES (0.05M), NaCl (0.03 M), imidazole (5.0 mM), DNase (0.1 mg/mL), MgCl2 (1.0 mM), CaCl2 (1.0 mM) and EDTA-free Complete Protease Inhibitor Cocktail and lysed using a microfluidizer. […] The suspension was applied to a column and the retained resin was washed with HEPES buffer containing 500 mM NaCl until the eluent was clean of DNA and protein (A280/260) and then with HEPES buffer containing 10 mM imidazole (5 mL/1 mL resin). Protein was then slowly eluted with HEPES buffer containing 50 mM imidazole in 1.0 mL fractions and the combined fractions containing hNUCB1 were passed through a Sephadex G-25M column to remove imidazole and concentrated in an Amicon centrifugal filter device (Millipore). These conditions produced hNUCB1 at approximately 10 mg/L of culture; however, several lower molecular weight fragments were also present in this preparation. hNUCB1 was further purified by size exclusion chromatography.
Cell lysates (1.0 mg/mL), the indicated lipid probe (2.5 or 5 μM) and, for recombinant NUCB1 competition experiments, purified hNUCB1 (250 nM) and CaCl2 (100 μM) were mixed on ice. DMSO or competitors were then added to the proteome mixture (50 μM) in 96-well plates and each sample was incubated for 15 min at 37° C. The samples were then irradiated with UV light and subjected to previously described click chemistry conditions. As before, each reaction was quenched with 4×SDS loading buffer (17 μL), and proteins were resolved using SDS-PAGE (10% acrylamide gel) and analyzed by in-gel fluorescent scanning on a Hitachi FMBIO-II flatbed fluorescence scanner. NUCB1 competition was quantitatively assessed by measuring the fluorescent intensity of the corresponding gel band using ImageJ 1.48v and normalizing this value by a non-competed gel band to control for loading differences.
Metabolite data are shown as mean±SEM (n=3-5/group). Differences between two groups were determined using Student's t test (unpaired, two-tailed) and significance was denoted for P values<0.05.

[2] = biological target: T2, AEA-DA lipid probe targets in Neuro2a cells (Mus musculus, UniProt Q8JZN5)
T2 sequence (Q8JZN5 42-625): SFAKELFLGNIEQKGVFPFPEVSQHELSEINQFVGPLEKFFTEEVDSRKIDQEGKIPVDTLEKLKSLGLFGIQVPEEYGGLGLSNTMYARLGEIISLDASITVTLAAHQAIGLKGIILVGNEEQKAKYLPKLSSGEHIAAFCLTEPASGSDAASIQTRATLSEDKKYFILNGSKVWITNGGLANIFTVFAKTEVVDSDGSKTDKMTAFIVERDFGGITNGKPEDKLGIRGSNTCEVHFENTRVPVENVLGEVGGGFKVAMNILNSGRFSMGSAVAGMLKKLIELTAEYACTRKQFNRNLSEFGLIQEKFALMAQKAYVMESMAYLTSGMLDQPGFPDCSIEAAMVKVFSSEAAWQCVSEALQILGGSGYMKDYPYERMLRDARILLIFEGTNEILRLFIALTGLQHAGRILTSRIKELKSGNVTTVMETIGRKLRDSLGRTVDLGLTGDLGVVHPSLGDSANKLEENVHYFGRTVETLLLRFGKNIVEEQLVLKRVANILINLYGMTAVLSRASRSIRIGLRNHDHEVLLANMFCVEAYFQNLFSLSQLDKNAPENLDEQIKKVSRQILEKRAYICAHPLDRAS

[3] = test system: PGE2 and TXB2 production in PMA-stimulated A549 cells; experiment: Prostaglandin production in A549 cells; format: cell-based, human; details: 10 μM, 30 min pre-treatment, then PMA
Description: The old media was removed from each plate and cells were washed with DPBS (2×3 mL) before adding freshly prepared media solutions containing vehicle or compound (3 mL/plate). After incubating for 30 min at 37° C., cells were then stimulated with PMA (10 nM) for 8 h. The media from the cells was then transferred to glass vials containing MS internal standards [PGE2-d9 (10 pmol), PGD2-d9 (10 pmol) and TXB2-d4 (10 pmol)], centrifuged (1,500×g, 5 min) to remove detached cells and then loaded onto preequilibrated reversed phase SPE cartridges (Phenomenex, Strata-X 33 μm, 60 mg/3 mL). After washing cartridges with 5% MeOH/H2O (3 mL), analytes were eluted with MeOH (1.0 mL) and the eluent was concentrated under a stream of N2. Concentrated samples were stored at −80° C. until the day of analysis when they were reconstituted in Mobile Phase A [100 μL, 30% CH3CN in H2O (0.1% AcOH)]. Media extracts were analyzed by LC/MS/MS with LC separation performed on a Kinetex reversed phase C18 column (50×4.6 mm, 2.6 μM particle size, 100Å). Mobile phase gradients were identical to those described above for prostamide analysis and the composition Mobile phases A and B differed only by lacking NH4OAc (5 mM). The following MS parameters were used to measure the indicated metabolites by MRM (precursor ion, product ion, collision energy, polarity): PGE2 (351, 271, 12, negative), PGE2-d9 (360, 280, 12, negative), TXB2 (369, 169, 6, negative), TXB2-d4 (373, 173, 6, negative). PGE2 and TXB2 levels were quantified by determining peak areas in relation to their deuterated internal standard.

CCCCC/C=C\C/C=C\C/C=C\C/C=C\CCCC(=O)NCCO [AEA, anandamide, reference compound]
competition of AEA-DA probe labeling of recombinant NUCB1 by lipids ([1]; AEA-DA 5.0 μM, lipids 20×, NUCB1-transfected HEK293T lysates): blocked

O=C(/C=C/c1cccnc1)NCCCCC1CCN(C(=O)c2ccccc2)CC1 [FK-866, reference compound]
SILAC ratio Acad9 ([2]; competitor 25 μM): 1.2
PGE2 synthesis from endogenous AA [3]: no effect
TXB2 synthesis from endogenous AA [3]: complete suppression

CN1CCN(C(=O)c2c(-c3ccccc3)c3cc([N+](=O)[O-])ccc3n2C)CC1 [KML110, (1-Methyl-5-nitro-3-phenyl-1H-indol-2-yl)(4-methylpiperazin-1-yl)methanone]
SILAC ratio Acad9 ([2]; competitor 25 μM): 1.7
IC50 [1]: 9.6 µM
PGE2 synthesis from endogenous AA [3]: suppress
TXB2 synthesis from endogenous AA [3]: suppress

CN1CCN(C(=O)c2[nH]c3ccc([N+](=O)[O-])cc3c2-c2ccccc2)CC1 [MJN228, (4-Methylpiperazin-1-yl)(5-nitro-3-phenyl-1H-indol-2-yl)methanone]
SILAC ratio Acad9 ([2]; competitor 10 μM): 1.4
SILAC ratio Acad9 ([2]; competitor 25 μM): 1.2
SILAC ratio Acad9 ([2]; competitor 50 μM): 1.4
SILAC ratio Acad9 ([2]; competitor 100 μM): 1.4
IC50 [1]: 3.3 µM
PGE2 synthesis from endogenous AA [3]: suppress
TXB2 synthesis from endogenous AA [3]: suppress

C=CCN(C)CCCCCCOc1ccc(C(=O)c2ccc(Br)cc2)c(F)c1 [Ro 48-8071, reference compound]
SILAC ratio Acad9 ([2]; competitor 25 μM): 1.3
